According to patent US7915245B2, “Methods and compositions of trail-death receptor agonists/activators” (The Board of Regents of the University of Texas System, priority 2007, dated 2011):

Assays:
[1] = system: mesothelioma M33K cell line; test: XTT cell viability, mesothelioma M33K; assay type: cell-based; conditions: z-VAD-fmk 25 μM 2 h pretreatment, then DRA 72 h
Experimental: FIG. 53. […] M33K cells were pretreated with either control peptide (10 μM) or pan caspase inhibitor (z-VAD-fink, 25 μM) for 2 h, followed by treatment with various doses of DRA11, DRA9 and DRA9S for 72 h. At the end of incubation, cell viability was measured by XTT assay. Data represent the mean±S.D.
(§1) XTT Assay. Cells (1×10^4 cells per well) were seeded in 96-well plates (flat bottom), and treated with death receptor agonists/activators/small molecules in the presence or absence of TNF-related apoptosis inducing ligand (TRAIL). Plates were incubated for various time points at 37° C. and 5% CO2. Before the end of the experiment, 50 μl XTT (sodium 3′[1-(phenylaminocarbonyl)-3,4-tetrazolium]-bis(4-methoxy-6-nitro) benzene sulfonic acid hydrate) labeling mixture (final concentration, 125 μM sodium XTT and 25 μM PMS) per well was added and plates were incubated for a further 4 h at 37° C. and 5% CO2. The spectrophotometric absorbance of the sample was measured using a microtitre plate (ELISA) reader. The wavelength to measure absorbance of the formazan product was 450 nm, and the reference wavelength was 650 nm.

[2] = system: mesothelioma M9K cell line; test: XTT cell viability, mesothelioma M9K; assay type: cell-based; conditions: then DRA 72 h; for effect of NFκB inhibitor MG132 on the inhibitory effect on cell viability: MG132 2.5 μM 4 h; for effect of pan caspase inhibitor (z-VAD-fmk) on the inhibitory effect on cell viability: z-VAD-fmk 25 μM 2 h pretreatment
Experimental: FIG. 43. […] Mesothelioma M9K cells were treated with NFκB inhibitor MG132 (2.5 μM) for 4 h followed by treatment with various concentrations of DRA11, DRA9, and DRA9S for 72 h. At the end of incubation, cell viability was measured by XTT assay. Data represent the mean±S.D.
FIG. 52. […] M9K cells were pretreated with either control peptide (10 μM) or pan caspase inhibitor (z-VAD-fmk, 25 μM) for 2 h, followed by treatment with various doses of DRA11, DRA9 and DRA9S for 72 h. At the end of incubation, cell viability was measured by XTT assay. Data represent the mean±S.D.
as §1

AsPC-1 cells = test: XTT cell viability with caspase inhibitor pretreatment, AsPC-1; assay type: cell-based, human; conditions: then DRA 72 h; for effect of caspase-3 inhibitor (z-DEVD-fmk) on the DRA effect on cell viability: Z-DEVD-fmk 25 μM 2 h pretreatment; for effect of caspase-8 inhibitor (Ac-IETD-CHO) on the DRA effect on cell viability: caspase-8 inhibitor 25 μM 2 h pretreatment; for effect of pan caspase inhibitor (z-VAD-fmk) on the DRA effect on cell viability: inhibitor 25 μM 2 h pretreatment
Experimental: (§2) FIG. 5. […] AsPC-1 cells were pretreated with either control peptide (25 μM) or caspase-3 inhibitor (Z-DEVD-fmk, 25 μM) for 2 h, followed by treatment with various doses of DRA11, DRA9 and DRA9S for 72 h. At the end of incubation, cell viability was measured by XTT assay. Data represent the mean±S.D. Control refers to a group treated with DMSO (0.01%).
as §2, with “6.” for “5.”, “caspase-8” for “caspase-3”, “(25” for “(Z-DEVD-fmk, 25”
as §2, with “7.” for “5.”, “caspase-8” for “caspase-3”, “(25” for “(Z-DEVD-fmk, 25”
as §1
(§3) AsPC-1 cells were pretreated with either control peptide (25 μM) or caspase-3 inhibitor (Z-DEVD-fink, 25 μM) for 2 h, followed by treatment with various doses of DRA11, DRA9 and DRA9S for 72 h. At the end of incubation, cell viability was measured by XTT assay. See, for example, FIG. 5. Data represent the mean±S.D. Control refers to a group treated with DMSO (0.01%).
as §3, with “caspase-8” for “caspase-3”, “(25” for “(Z-DEVD-fink, 25”, “6.” for “5.”
as §3, with “caspase-8” for “caspase-3”, “(25” for “(Z-DEVD-fink, 25”, “7.” for “5.”

[3] = system: pancreatic cancer AsPC-1 cells xenografted; test: AsPC-1 xenograft tumor growth; assay type: in vivo, Balb c nude mice; conditions: 20, 40 mg/kg iv, 5 days per week
Experimental: FIG. 27. […] AsPC-1 cells (2×10^6 cells as a 50% suspension in Matrigel, Becton Dickinson, Bedford, Mass., in a final volume of 0.1 ml) were injected subcutaneously in the right flank of Balb c nude mice. After tumor formation (about 100 mm^3), nude mice (10 per group) were treated (iv) with vehicle control (0.1 ml normal saline), DRA11 (20 mg/kg, 0.1 ml volume), and DRA11 (40 mg/kg, 0.1 ml volume) everyday 5 days per week throughout the duration of the experiment. Tumor volume was calculated using the equation: (volume=length×width×depth×0.5236 mm^3).
FIG. 31. […] MDA-MB-468 cells (2×10^6 cells, in a final volume of 0.1 ml PBS) were injected subcutaneously in the right flank of Balb c nude mice. […] Tumor volume was calculated using the equation: (volume=length×width×depth×0.5236 mm^3). […]
AsPC-1 cells (2×10^6 cells as a 50% suspension in Matrigel, Becton Dickinson, Bedford, Mass., in a final volume of 0.1 ml) were injected subcutaneously in the right flank of Balb c nude mice. […] Tumor volume was calculated using the equation: (volume=length×width×depth×0.5236 mm^3). […]
MDA-MB-468 cells (2×10^6 cells, in a final volume of 0.1 ml PBS) were injected subcutaneously in the right flank of Balb c nude mice. […] Tumor volume was calculated using the equation: (volume=length×width×depth×0.5236 mm^3). […]

SMILES | effect of pan caspase inhibitor (z-VAD-fmk) on the inhibitory effect on cell viability [1] | effect of NFκB inhibitor MG132 on the inhibitory effect on cell viability [2] | effect of pan caspase inhibitor (z-VAD-fmk) on the inhibitory effect on cell viability [2] | effect of caspase-3 inhibitor (z-DEVD-fmk) on the DRA effect on cell viability (AsPC-1 cells) | effect of caspase-8 inhibitor (Ac-IETD-CHO) on the DRA effect on cell viability (AsPC-1 cells) | effect of pan caspase inhibitor (z-VAD-fmk) on the DRA effect on cell viability (AsPC-1 cells) | growth of xenografted AsPC-1 tumors (tumor volume) [3]
CCOc1cc(Br)c(Br)c(/C=N/c2cccc(C(=O)O)c2)c1O [DRA9] | blocks the inhibitory effects | enhances the inhibitory effects | blocks the inhibitory effects | blocks the effects | blocks the effects | blocks effects | –
CCOc1cc(Br)c(Br)c(/C=N/c2cccc(C(=O)O)c2C)c1O [DRA9S] | – | enhances the inhibitory effects | blocks the inhibitory effects | blocks the effects | blocks the effects | blocks effects | inhibits growth
